From patent US20240263207A1, “IN VIVO FLUORINATION” (Danmarks Tekniske Universitet, priority 2018, published 2024)
Where two headings read alike, the source gives them in different places.

Legend:
P. putida KT2440ΔcrcB [1] = settings: data not shown
Protocol: Growth arrest by NaF in P. putida KT2440ΔcrcB was performed by diluting 20 times the overnight cultures in 10 mL of modified M9 minimal medium. Cells were grown in 96-well microtiter plates (flat bottom, Greiner Bio-one) at 30° C. and 200 rpm in an ELx808 microtiter plate reader (BioTek). After six hours of incubation, the cultures had reached an OD630 of 0.5, and the NaF was added at different concentrations. Cells exposed to the stressor were incubated in a microtiter plate reader for 24 hours, and growth was followed by measuring OD630 every 30 minutes. The concentrations of NaF used were 0, 0.05, 0.1, 0.5, 0.75, 1, 2 and 5 mM.
To explore the possibility of having a growth-decoupled platform for biofluorination, we tested the effect of NaF in the growth when added in mid-exponential phase.

FRS-PT7 system [2] = experiment: Expression assay, FRS-PT7 system with PT7-msfgfp in P. putida KT2440ΔcrcB::FRS-T7RNAP; type: cell-based, Pseudomonas putida; settings: lower NaF concentrations than in the P. putida KT2440 background
Protocol: (§5) Overnight cultures of P. putida KT2440 with plasmids pSEVA441-FRSv1, pSEVA441-FRSv2, pSEVA441-FRSv3, pSEVA441-FRSv4, or pSEVA441 as autofluorescence control, were diluted 40 times in 10 ml of minimal medium. […] Subsequently, kinetics of the growth and fluorescence, using wavelengths of excitation and emission of 485 nm and 528 nm, respectively, were performed using a SynergyMX (BioTek) microtiter plate reader for 20 hours. Measurements for kinetics were carried out every ten minutes and three independent biological replicates were carried out. The same procedure was carried out with P. putida KT2440::FRS-T7RNAP and P. putida KT2440ΔcrcB::FRS-T7RNAP strains containing the plasmid pSEVA231-T7pr::msfGFP as well as with the plasmid pSEVA231-T7pr, used as an autofluorescence control.

FRS-PT7 system [3] = test system: FRS-PT7 system
Protocol: as §5

P. putida KT2440 = settings: minimal medium, A600 after 20 hours
Protocol: (§1) Overnight cultures of P. putida KT2440 and P. putida KT2440ΔcrcB were diluted 20 times in 10 mL of modified M9 minimal medium containing different concentrations of NaF. Cells were grown in 96-well microtiter plates (flat bottom, Greiner Bio-one) at 30° C. and 200 rpm in an ELx808 microtiter plate reader (BioTek). Cells exposed to NaF at various concentrations were incubated in a microtiter plate reader for 24 hours, and growth was followed by measuring OD630 every 30 minutes. The concentrations used for each strain were 0, 25, 50, 75, 125, 200 and 250 mM for P. putida KT2440, and 0, 0.1, 0.5, 1 and 5 mM for P. putida KT2440ΔcrcB.
(§2) The effect of the deletion of crcB on the growth in the presence of high concentrations of NaF in P. putida KT2440 was assessed by calculating the minimal inhibitory concentrations (MICs) of NaF needed to suppress the growth in both a wild-type and a ΔcrcB mutant.

P. putida KT2440ΔcrcB [4] = test system: P. putida KT2440ΔcrcB
Protocol: as §1, §2

[5] = test system: F^− responsive riboswitch (FRS) from P. syringae; experiment: Expression assay, FRS constructs FRSv1-4 before msfGFP in P. putida KT2440; type: cell-based, Pseudomonas putida; settings: 0, 1, 5 and 15 mM of NaF
Protocol: Overnight cultures of P. putida KT2440 with plasmids pSEVA441-FRSv1, pSEVA441-FRSv2, pSEVA441-FRSv3, pSEVA441-FRSv4, or pSEVA441 as autofluorescence control, were diluted 40 times in 10 ml of minimal medium. […] Subsequently, kinetics of the growth and fluorescence, using wavelengths of excitation and emission of 485 nm and 528 nm, respectively, were performed using a SynergyMX (BioTek) microtiter plate reader for 20 hours. Measurements for kinetics were carried out every ten minutes and three independent biological replicates were carried out.
To check the performance of the riboswitch in P. putida KT2440 we cloned four different versions of the riboswitch before the fluorescent reporter protein msfGFP. In the constructions FRSv1 and FRSv2 we kept the original promoter of gene eriC^F, whereas in FRSv3 and FRSv4 we changed the promoter to a constitutive heterologous promoter, PEM7. In the constructions FRSv1 and FRSv3 we conserved the first 8 amino acids of the original eriC^F gene as well, whereas FRSv2 and FRSv4 started with the coding sequence of the msfGFP (FIG. 2).

PNP FlB1 = experiment: In vitro phosphorylase activity assay with cell extracts expressing FlB1; type: biochemical, Streptomyces sp. MA37; settings: 20 hours of incubation, extracts with plasmid pFB-T7FlB1(NHis)
Protocol: In vitro biofluorination was performed with the strain P. putida KT2440 harboring the plasmids pFB-PmflA1, pFB-PT7flB1(NHis), and pFB-PT7flA1, and pPS23 or pSEVA231-PT7pr as negative controls, respectively. Overnight cultures of the strains were diluted to an OD600 of 0.1 in fresh minimal medium, in 250-ml shake flasks. Cells were grown for six hours at 30° C. with shaking of 200 rpm, when they reached an OD600 between 0.4-0.6, after which they were induced with 3-MB 1 mM for the XylS/Pm system or 15 mM of NaF for the FRS-PT7. After 20 hours of incubation, all the volume of culture was centrifuged at 5000 rpm for 10 minutes at 4° C., and the supernatant was discarded. Cellular pellets were washed with Tris-HCl 50 mM pH7.8 and resuspended in a final volume of 3 ml. Cells were disrupted using glass beads in a bead beater, using a program of 6000 rpm for 20 seconds. […] Protein concentrations were determined using a Bradford assay, yielding a concentration of at least 1 mg/ml.
Similarly, for phosphorylase activity assays, 1 ml of the protein fraction from cultures expressing the phosphorylase was then mixed with 0.2 mM of 5′-FDA, in Tris-HCl 50 mM pH7.8. […] After 20 hours of incubation at 30° C., the rest of the reaction was inactivated as described before and the supernatant was taken and analyzed by HPLC. […]

[6] = target: T1, nucleosidase, coded by the gene pfs (Escherichia coli, UniProt P0AF12); experiment: In vitro conversion of 5′-FDA by cell extracts expressing Pfs; type: biochemical, E. coli; settings: 20 hours
T1 construct: made in house; host or cells: Pseudomonas putida (pPS23 vector, XylS/Pm system; crude cell extract, not purified)
T1 sequence (P0AF12 whole entry): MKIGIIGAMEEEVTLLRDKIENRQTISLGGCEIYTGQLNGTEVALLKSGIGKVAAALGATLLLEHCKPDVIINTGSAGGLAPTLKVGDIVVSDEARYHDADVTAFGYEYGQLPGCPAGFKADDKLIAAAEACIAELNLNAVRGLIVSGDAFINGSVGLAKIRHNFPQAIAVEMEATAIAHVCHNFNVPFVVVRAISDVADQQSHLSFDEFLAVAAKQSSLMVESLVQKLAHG
Protocol: (§3) The E. coli purine nucleotide phosphorylase, coded by the gene deoD (SEQ ID NO: 14), as well as the nucleosidase pfs (SEQ ID NO: 16), were amplified by PCR from the genome of the strain MG1655 using reverse primers containing the sequence to introduce a 6×His tag, in order to allow purification if needed. These fragments were respectively mixed with a PCR fragment amplified with USER primers of the pPS23 vector, containing the XylS/Pm expression system. The cloning was performed by USER cloning as described above.
(§4) We furthermore explored the possibility that 5′-FDA could be utilized for other enzymes different to the endogenous of the fluorination pathway from Streptomyces. For this purpose, we used another PNP and a nucleosidase of E. coli. The E. coli PNP, coded by the gene deoD (SEQ ID NO: 14), is able to perform the same reaction as FlB1, and produce 5′-FDRP, whereas the nucleosidase, coded by the gene pfs (SEQ ID NO: 16), removes the […] of 5′-FDA, yielding the sugar 5′-fluorodeoxyribose. These three enzymes share a similarity of 26% in their amino acidic sequence, and contain a common domain, the PNP_UDP_1 domain (PF0148), belonging to the Phosphorylase superfamily. To test the activity of these two enzymes, they were overexpressed in P. putida and the cell extracts were incubated with the substrate 5′-FDA.

[7] = target: T2, E. coli PNP, coded by the gene deoD (Escherichia coli, UniProt P0ABP8); experiment: In vitro conversion of 5′-FDA by cell extracts expressing DeoD; type: biochemical; settings: 20 hours
T2 construct: made in house; host or cells: Pseudomonas putida (pPS23 vector, XylS/Pm system; crude cell extract, not purified)
T2 sequence (P0ABP8 whole entry): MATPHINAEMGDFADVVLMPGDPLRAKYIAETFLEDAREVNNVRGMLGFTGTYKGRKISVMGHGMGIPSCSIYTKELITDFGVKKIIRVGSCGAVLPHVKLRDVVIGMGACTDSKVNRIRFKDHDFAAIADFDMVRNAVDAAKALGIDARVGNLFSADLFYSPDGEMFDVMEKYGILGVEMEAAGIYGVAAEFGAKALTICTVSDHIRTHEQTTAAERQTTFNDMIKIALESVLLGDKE
Protocol: as §3, §4

XylS/Pm system = settings: Calero 2016; cited from earlier work

SMILES: [F-].[Na+] [NaF, Sodium fluoride]
- Effect on growth (P. putida KT2440ΔcrcB [1]; 0.5 mM of NaF added in mid-exponential phase): a decrease in the growth phase was found
- Effect on growth (P. putida KT2440ΔcrcB [1]; 1 mM of NaF added in mid-exponential phase): stopped cell growth almost completely
- Expression levels relative to the wild-type background (FRS-PT7 system [2]): almost two times higher than in the wild-type background
- Fluorescence response of the FRS-PT7 system (FRS-PT7 system [3]; 0, 1 and 15 mM of NaF): led to an increase of the cells fluorescence
- Final growth of the cultures (FRS-PT7 system [3]; NaF concentrations used for induction (up to 15 mM)): not affected
- NaF concentration in which the strain was able to thrive (MIC assay) (P. putida KT2440): 75 mM
- Growth inhibition on plates (P. putida KT2440ΔcrcB [4]; LB plates containing 0.5 and 1 mM of NaF): This effect was also seen
- NaF concentration at which the strain was not able to grow (MIC assay) (P. putida KT2440ΔcrcB [4]; minimal medium, A600 after 20 hours): 0.5 mM
- Fluorescence response of the four FRS constructs [5]: an increase of the fluorescence when higher concentrations of NaF were used

SMILES: [Cl-].[Na+] [NaCl, reference compound]
- Effect on growth of the ΔcrcB mutant versus wild-type (P. putida KT2440ΔcrcB [4]; same assays in the presence of NaCl, data not shown): no such effect was seen

SMILES: Nc1ncnc2c1ncn2[C@@H]1O[C@H](CF)[C@@H](O)[C@H]1O [5′-FDA, 5′-fluoro-5′-deoxyadenosine]
- Change of 5′-FDA concentration versus initial concentration (PNP FlB1): a decrease in the concentration of 5′-FDA
- Consumption of substrate 5′-FDA (product 5′-fluorodeoxyribose detected by LC-MS) [6]: reduced or depleted completely
- Consumption of substrate 5′-FDA (product 5′-FDRP detected by LC-MS) [7]: reduced or depleted completely

SMILES: Cc1cccc(C(=O)O)c1 [3-MB, 3-methylbenzoate]
- Inducer concentration needed to achieve full expression (XylS/Pm system): 0.5 mM
